# From patent publication US5229413A, “Compositions containing indole-2-carboxylate compounds for treatment of CNS disorders” (G. D. Searle & Co., priority 1992, dated 1993)
# Like-named read-outs stand apart in the source and are kept apart here.
# How the values were obtained:
# [1] = biological target: T1, strychnineinsensitive glycine recognition site (NMDA receptor-ion channel complex) (Rattus norvegicus, UniProt P35439); experiment: Glycine binding assay, [3H]glycine, synaptic plasma membranes
# T1 construct: Synaptic plasma membranes (SPM) were prepared from rat forebrain; from tissue; host or cells: rat forebrain synaptic plasma membranes
# Protocol: Synaptic plasma membranes (SPM) were prepared from rat forebrain and stored as previously described [J. B. Monahan and J. Michel, J. Neurochem, 48, 1699-1708 (1987)]. Frozen membranes were thawed and diluted 1:20 with 0.04% triton X-100 in 50 mM tris/acetate (pH 7.4). Following incubation at 37° C. for 30 min., the SPM were collected by centrifugation at 95,000 X g for 15 min. The pellet was resuspended in 50 mM tris/acetate (pH 7.4, triton-free) and hand-homogenized five times. The membranes were again centrifuged as above. The pellet was washed two additional times with 50 mM tris/acetate (without homogenization) and centrifuged. The final pellet was resuspended with homogenization in 50 mM tris/acetate.
# In the general receptor binding assay procedure, 10 nM [^3 H]glycine was added to the appropriate concentration of the test compounds and the assay initiated by the addition of 0.2-0.4 mg of ice cold SPM. The assay, which was done in 1.5 ml centrifuge tubes, was adjusted to a total volume of 1.0 ml with all additions being made in 50 mM tris/ acetate, pH 7.4 at 4° C. After a 10 minute incubation at 2° C., the samples were centrifuged for 15 min. at 12,000 g (4° C.) in a Beckman Microfuge 12. The supernatant was aspirated and the tube tip containing the pelleted membranes cut off and agitated in 0.5 ml of Beckman BTS-450 tissue solubilizer for a minimum of 6 hours at room temperature. Beckman MP scintillation cocktail (5 ml) containing 7 ml/liter acetic acid was then added and the samples counted on a Beckman LS 5800 liquid scintillation counter with automatic corrections for quenching and counting efficiency. […] The binding of [^3 H]glycine to the SPM was analyzed using Scatchard and Hill transformations and the Ki for other compounds was determined using logit-log analysis. Calculations and regression analysis were performed using templates developed for Lotus 123 as previously described [Pullan et al, Id.].
# [2] = biological target: N-methyl-D-aspartate (NMDA) receptor site; experiment: Glutamate (NMDA) binding assay, L-[3H]glutamate, synaptic plasma membranes; settings: L-[3H]glutamate 12.5 nM, pH 7.4, 0-4° C.; read-out: Ki apparent, NMDA
# Protocol: The purpose of this assay is to determine the binding affinity of a compound of Formula I for the N-methyl-D-aspartate (NMDA) receptor site. This procedure was carried out as follows:
# Synaptic plasma membranes (SPM) were prepared as previously described [Monahan, J. B. and Michel, J., "Identification and Characterization of an N-methyl-D-aspartate-specific L-[^3 H]glutamate Recognition Site in Synaptic Plasma Membranes, J. Neurochem., 48, 1699-1708 (1987)]. The SPM were stored at a concentration of 10-15 mg/ml in 0.32 M sucrose, 0.5 mM EDTA, 1 mM MgSO4, 5 mM Tris/SO4, pH 7.4, under liquid nitrogen. The identity and purity of the subcellular fractions were confirmed by both electron microscopy and marker enzymes. Protein concentrations were determined by using a modification of the method of Lowry [Ohnishi, S. T. and Barr, J. K., "A Simplified Method of Quantitating Proteins Using the Biuret and Phenol Reagents", Anal. Biochem., 86, 193-197 (1978)]. The SPM were thawed at room temperature, diluted twenty-fold with 50 mM Tris/acetate, pH 7.4, incubated at 37° C. for 30 minutes, and centrifuged at 100,000 g for 15 minutes. The dilution, incubation, and centrifugation was repeated a total of three times. This general method involved adding 12.5 nM of the L-[^3 H]glutamate radioligand to the appropriate concentration of the test compound and initiating the assay by the addition of ice cold SPM (0.2-0.45 mg). The binding assays were performed in 1.5 ml centrifuge tubes with the total volume adjusted to 1.0 ml. Additions of test compounds were made in 50 mM Tris/acetate, pH 7.4 and incubations were carried out at 0°-4° C. The incubation time for the NMDA binding assay was 10 minutes. To terminate the incubation, the samples were centrifuged for 15 minutes at 12,000 g and 4° C. in a Beckman Microfuge 12. The supernatant was aspirated and the pelleted membranes dissolved in Beckman Ready-Protein scintillation cocktail and the samples counted on a Beckman LS 5800 or 3801 liquid scintillation counter with automatic corrections for quenching and counting efficiency. Nonspecific binding was defined as the residual binding in the presence of 0.5 mM NMDA and was typically 15-25% of the total binding in the NMDA binding assay. Radioligand binding to the SPM was analyzed using Scatchard and Hill transformations and the Ki values of the compounds determined using logit-log transformations. Calculations and regression analysis were performed using templates developed for Lotus 1, 2, 3 as previously described [Pullan, L. M. "Automated Radioligand Receptor Binding Analysis with Templates for Lotus", Computer Appln. Biosci., 3 131 (1987)]. Binding results are reported in Table II for example compounds of the invention.
# [3] = 10 nM [3H]glycine, pH 7.4, rat forebrain SPM, read-out: Ki apparent, Gly
SMILES,"Ki [1, 3]",Ki [2],Ki [1]
"Cn1c(C(=O)O)c(CC(=O)O)c2ccccc21 [compound 2, 2-carboxy-1-methyl-3-indoleacetic acid]",> 100 µM,> 100 µM,–
"O=C(O)CCc1c(C(=O)O)[nH]c2ccccc12 [compound 7, 2-carboxy-3-indolepropanoic acid]",> 100 µM,> 100 µM,–
"O=C(O)CCCc1c(C(=O)O)[nH]c2ccccc12 [compound 8, 2-carboxy-3-indolebutanoic acid]",> 100 µM,> 100 µM,–
"O=C(O)CCCCc1c(C(=O)O)[nH]c2ccccc12 [compound 9, 2-carboxy-3-indolepentanoic acid]",> 100 µM,> 100 µM,–
"CCC(C(=O)O)c1c(C(=O)O)[nH]c2ccccc12 (stereo not shown) [compound 10, 2-(2-carboxy-3-indole)butanoic acid]",> 100 µM,> 100 µM,–
"O=C(O)c1cc2ccccc2[nH]1 [compound 13, indole-2-carboxylic acid]",–,> 100 µM,> 100 µM
"O=C(O)c1cc2cc(F)ccc2[nH]1 [compound 15, 5-fluoroindole-2-carboxylic acid]",–,> 100 µM,–
"O=C(O)c1cc2cc(Br)ccc2[nH]1 [compound 16, 5-bromoindole-2-carboxylic acid]",> 100 µM,> 100 µM,–
"Cc1ccc2[nH]c(C(=O)O)cc2c1 [compound 17, 5-methylindole-2-carboxylic acid]",> 100 µM,> 100 µM,–
"COc1ccc2[nH]c(C(=O)O)cc2c1 [compound 18, 5-methoxyindole-2-carboxylic acid]",> 100 µM,> 100 µM,–
"CCOC(=O)Cc1c(C(=O)OCC)[nH]c2ccccc12 [compound 19, ethyl 2-carboethoxy-3-indoleacetate]",> 100 µM,> 100 µM,–
"O=C(O)c1[nH]c2ccccc2c1CCO [compound 20, 3-(2-hydroxyethyl)indole-2-carboxylic acid]",> 10 µM,–,–
"Cc1cc2c(CC(=O)O)c(C(=O)O)[nH]c2cc1Cl [compound 21, 2-carboxy-6-chloro-5-methylindole-3-acetic acid]",> 10 µM,–,–
"O=C1OCCc2c1[nH]c1ccccc21 [compound 23, 4,9-dihydropyrano[3,4-b]indol-1(3H)-one]",> 100 µM,–,–
"O=Cc1c(C(=O)O)[nH]c2ccccc12 [compound 24, 3-formylindole-2-carboxylic acid]",–,> 100 µM,–
"CC(=O)Cc1c(C(=O)O)[nH]c2ccccc12 [compound 25, 3-(2-oxopropyl)indole-2-carboxylic acid]",> 30 µM,–,–
"O=C(O)c1cc2c(C(=O)O)cccc2[nH]1 [compound 26, 4-carboxyindole-2-carboxylic acid]",> 20 µM,–,–
"O=C(O)c1cc2c(OCc3ccccc3)cccc2[nH]1 [compound 27, 4-benzyloxyindole-2-carboxylic acid]",> 20 µM,–,–
"O=C(O)c1cc2c(O)cccc2[nH]1 [compound 28, 4-hydroxyindole-2-carboxylic acid]",> 20 µM,–,–
"O=C(O)Cc1c(C(=O)O)[nH]c2c(Cl)cccc12 [compound 29, 2-carboxy-7-chloroindole-3-acetic acid]",> 30 µM,–,–
"CCOC(=O)Cc1c(C(=O)OCCCN(C)C)[nH]c2cc(Cl)ccc12 [compound 34, ethyl 2-(3-dimethylaminopropyloxycarbonyl)-6-chloro-3-indole acetate]",> 30 µM,–,–
"CCOC(=O)Cc1c(C=O)[nH]c2cc(Cl)ccc12 [compound 51, ethyl 6-chloro-2-formyl-3-indole acetate]",> 30 µM,–,–
"CN(C)CCNC(=O)Cc1c(C(=O)NCCN(C)C)[nH]c2cc(Cl)ccc12 [compound 54, 2-carboxy-6-chloro-3-indole acetic acid bis-2-dimethyl aminoethylamide]",> 30 µM,–,–

# More lines, main results first:
"Ki [1, 3]",Ki [2],SMILES,Ki [1]
> 30 µM,–,O=C(O)Cc1c(CO)[nH]c2cc(Cl)ccc12,–
11.7 µM,> 100 µM,"O=C(O)Cc1c(C(=O)O)[nH]c2ccc(Cl)cc12 [Compound No. 3, 2-carboxy-5-chloro-3-indoleacetic acid]",–
> 100 µM,> 100 µM,"O=C(O)c1[nH]c2cc(Cl)ccc2c1O [Compound No. 11, 6-chloro-3-hydroxyindole-2-carboxylic acid]",–
> 100 µM,> 100 µM,"O=C(O)c1[nH]c2ccccc2c1CO [Compound No. 12, 3-hydroxymethylindole-2-carboxylic acid]",–
26.2 µM,> 100 µM,"O=C(O)Cc1c(C(=O)O)[nH]c2ccc(Br)cc12 [compound 4, 5-bromo-2-carboxy-3-indoleacetic acid]",–
17.5 µM,> 100 µM,"O=C(O)Cc1c(C(=O)O)[nH]c2ccc(F)cc12 [compound 5, 2-carboxy-5-fluoro-3-indoleacetic acid]",–
> 100 µM,> 100 µM,"O=C(O)c1cc2cc(Cl)ccc2[nH]1 [compound 14, 5-chloroindole-2-carboxylic acid]",–
> 100 µM,–,"CCOC(=O)Cc1c(C(=O)OCC)[nH]c2cc(Cl)ccc12 [compound 22, ethyl 2-carboethoxy-6-chloro-3-indoleacetate]",–
> 30 µM,–,"CN(C)C(=O)Cc1c(C(=O)O)[nH]c2cc(Cl)ccc12 [compound 36, 2-carboxy-6-chloro-3-indole acetic acid 3-dimethyl amide]",–
11.4 µM,–,"O=C(Cc1c(C(=O)O)[nH]c2cc(Cl)ccc12)NCCO [compound 39, 2-carboxy-6-chloro-3-indoleacetic acid 3-(2-hydroxyethyl)amide]",–
> 30 µM,–,"CN(C)CCCNC(=O)Cc1c(C(=O)O)[nH]c2cc(Cl)ccc12 [compound 40, 2-carboxy-6-chloro-3-indoleacetic acid 3-(3-dimethylaminopropyl)amide]",–
7 µM,–,"CCCOC(=O)Cc1c(C(=O)O)[nH]c2cc(Cl)ccc12 [compound 42, propyl 2-carboxy-6-chloro-3-indoleacetate]",–
0.47 µM,–,"O=C(Cc1c(C(=O)O)[nH]c2cc(Cl)ccc12)NCCc1ccccc1 [compound 45, 2-carboxy-6-chloro-3-indoleacetic acid 3-phenylethylamide]",–
> 10 µM,–,"CCOC(=O)c1[nH]c2cc(Cl)ccc2c1CCCl [compound 47, ethyl 6-chloro-3-(2-chloroethyl)-2-indolecarboxylate]",–
> 30 µM,–,"CCOC(=O)Cc1c(CO)[nH]c2cc(Cl)ccc12 [compound 52, ethyl 6-chloro-2-hydroxymethyl-3-indoleacetate]",–
> 30 µM,–,"CCOC(=O)c1[nH]c2cc(Cl)ccc2c1CC(N)=O [compound 55, 2-carboethoxy-6-chloro-3-indoleacetamide]",–
